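Each compound was tested at five concentrations against cells in 96-well plates for 48 hours. TGI: concentration producing complete growth inhibition.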
Columns and labels:
Assay in all cases: inhibition of tumour cell growth, NCI panel, 48 h
[1] = system: HT29 colon
[2] = system: MDA-N
[3] = system: MDA-MB-435
[4] = system: SK-OV-3 ovarian
[5] = system: KM12 colon
[6] = system: SNB-19 CNS
[7] = system: UACC-257 melanoma
[8] = system: NCI-H460 lung
[9] = system: RXF 393 renal
[10] = system: HCC-2998 colon

Row | SMILES | TGI [1] | TGI [2] | TGI [3] | TGI [4] | TGI [5] | TGI [6] | TGI [7] | TGI [8] | TGI [9] | TGI [10]
1 | Cc1ncc([N+](=O)[O-])n1CCN=[N+]=[N-] | > 100 µM | > 100 µM | > 100 µM | > 100 µM | > 100 µM | > 100 µM | > 100 µM | > 100 µM | > 100 µM | –
2 | Cc1ccc(S(=O)(=O)C(C#N)c2nc3ccccc3nc2-n2cccn2)cc1 (configuration not stated) | > 100 µM | – | – | > 100 µM | > 100 µM | > 100 µM | > 100 µM | > 100 µM | – | > 100 µM
3 | CC(=O)O[C@]12CCCCCCC1C1(O)C(O)CCC[C@H]12 (some centres not stated) | > 100 µM | – | – | > 100 µM | > 100 µM | > 100 µM | > 100 µM | > 100 µM | > 100 µM | –
4 | CCCCCCCCCCCCC(=O)NCC(=O)NC(Cc1ccccc1)C(=O)Oc1ccc([N+](=O)[O-])cc1 (configuration not stated) | > 100 µM | > 100 µM | > 100 µM | – | > 100 µM | > 100 µM | > 100 µM | > 100 µM | > 100 µM | > 100 µM
5 | C=C1C(=O)O[C@H]2C1[C@H](OC(=O)/C(C)=C\COC(C)=O)C[C@]1(CO1)[C@@H]1[C@H](O)[C@H]3O[C@@]3(C)[C@@H]12 (some centres not stated) | 40.8 µM | – | – | > 100 µM | 29.5 µM | > 100 µM | 31.3 µM | > 100 µM | 32.9 µM | 22.2 µM
6 | Cc1ccc(Nc2nc(=O)[nH]c(=O)[nH]2)cc1N | > 100 µM | > 100 µM | > 100 µM | > 100 µM | > 100 µM | > 100 µM | > 100 µM | > 100 µM | – | > 100 µM
7 | CC1(C)CC(=O)C(/C=N/c2nc(-c3ccc(Br)cc3)cs2)=C(O)C1 | > 100 µM | > 100 µM | 76.5 µM | > 100 µM | > 100 µM | > 100 µM | 38.3 µM | > 100 µM | – | 80.9 µM
8 | CC(=O)Oc1ccc2cc(Oc3ccc(Cl)cc3)c(=O)oc2c1 | > 100 µM | 78.8 µM | – | – | > 100 µM | > 100 µM | 78.7 µM | > 100 µM | > 100 µM | > 100 µM
9 | c1ccc2c3c(ccc2c1)CSCc1ccc2ccccc2c1-3 | > 100 µM | > 100 µM | > 100 µM | – | > 100 µM | > 100 µM | > 100 µM | – | > 100 µM | > 100 µM
10 | Cc1ccc2ccccc2c1CC1S(=O)(=O)OCCOS1(=O)=O | 27.1 µM | 22.2 µM | 22 µM | – | 29.3 µM | 25.9 µM | 41.2 µM | 27.4 µM | – | 15.8 µM
11 | CCCCCCCCCCCCOC1C(COCCN2CCCC2)OC2OC(C)(C)OC21 (configuration not stated) | 2.98 µM | 2.76 µM | 3.14 µM | 3.33 µM | – | 10.2 µM | 3.14 µM | – | 3.17 µM | –
12 | COc1cc(C2C(Cl)C(=O)N2c2ccc(Br)cc2)cc(I)c1O (configuration not stated) | > 100 µM | > 100 µM | > 100 µM | > 100 µM | > 100 µM | > 100 µM | > 100 µM | > 100 µM | – | –
